Earlier results, collected in US20110256058A1, “Novel Peptides and Uses Thereof” (UNIVERSITY OF SOUTHERN CALIFORNIA, priority 2007, published 2011).

Tested on: α2 aI domain
Conditions: literature; for conformational effect on α2 receptor: open conformation of α2 receptor

Substance	conformational effect on α2 receptor	binding to aI domain	inhibition of aI domain / α2β1 binding to collagen and laminin
CARKKHDC [RKKH peptide of structural studies in the literature]	induce conformational change		
CTRKKHDC [RKKH peptide of structural studies in the literature]	induce conformational change		
CTRKKHDNAQC		binds to aI domain	prevents its binding to collagen (type I, IV) and laminin (type 1)
RSECD			fails to inhibit collagen binding
